In PMC3561256, “Anti-infectious and anti-inflammatory effects of peptide fragments sequentially derived from the antimicrobial peptide centrocin 1 isolated from the green sea urchin, Strongylocentrotus droebachiensis” (AMB Express, 2012):
Values joined by “and” are separate entries in the source; they are usually repeats but may differ in a detail not shown here. Identical values can stand only once. No end group written: not given here.

Assays:
S. aureus (ATCC 12600) = assay: Minimal microbicidal concentration (MMC99) assay; assay type: cell-based, Staphylococcus aureus
Procedure: (§1) All the synthesised peptides were tested for their in vitro microbicidal activity against S. aureus (American Type Culture Collection (ATCC) 12600) and P. aeruginosa (ATCC 15442) using a minimal microbicidal concentration (MMC) assay as previously described (Haversen et al. [2010]). Bacteria were cultured in 3.7% brain heart infusion (BHI) broth (Difco, BD Diagnostics, Franklin Lakes, NJ) on a shaker at 250 rpm overnight at 37°C. The culture was diluted 1:10 in fresh 3.7% BHI and incubated for two additional hours to reach log-phase growth. The bacteria were pelleted by centrifugation at 900 × g and suspended in 0.037% BHI to a concentration of 10^7 CFU/mL, estimated by measuring optical density at 600 nm (OD600). To investigate the influence of physiological conditions on microbicidal effect of the peptides, four different assay media were used: 0.037% BHI, 0.037% BHI supplemented with 85 or 150 mM sodium chloride (NaCl), and 50% heat inactivated simulated wound fluid (h.i. SWF) composed of a 50:50 mixture of 0.1% peptone (Oxoid, Basingstoke, UK) in 150 mM NaCl and fetal bovine serum (FBS; PAA Laboratories GmbH, Pasching, Austria), diluted two times in ultra pure water. The peptides were serially diluted by twofold steps from 200 to 1.56 mg/L in the assay media used, and 100 μL of the peptide solutions were mixed with 5 μL bacterial suspensions in a 96 well plate (Nunc, Roskilde, Denmark) and incubated at 37°C for two hours. An aliquot of 5 μL from each well was aspirated and added as drops onto blood agar plates (Columbia agar; Oxoid, Basingstoke, UK) supplemented with 5% defibrinated horse blood (Swedish National Veterinary Institute (SVA), Uppsala, Sweden), and the plates were incubated overnight at 37°C. All samples were processed as duplicates. The minimal test compound concentration causing ≥99% reduction of bacteria was defined as the MMC99. The concentration of the bacterial suspension used in the assay was confirmed by viable count estimation on blood agar plates (Oxoid).
(§2) CEN1 HC was further screened for microbicidal activity against a panel of microbial strains using the MMC99 assay, as described above, except using only two different assay media; 0.037% BHI and 50% h.i. SWF. The following microbial strains were tested for sensitivity: S. aureus (ATCC 12600), MRSA (ATCC 33591), Staphylococcus epidermidis (ATCC 12228), Streptococcus pyogenes (ATCC 12344), Propionibacterium acnes (ATCC 6919) Escherichia coli (ATCC 11775), P. aeruginosa (ATCC 15442), Klebsiella pneumoniae (Culture collection, University of Gothenburg (CCUG) 59413, clinical isolate resistant to penicillins, cephalosporins, aztreonam and carbapenems, with the reference strain ATCC 13883), Acinetobacter baumannii (CCUG 58437, clinical isolate resistant to tobramycin, trimsulfa, ciprofloxacin, cefotaxim, ceftazidim, meropenem, pipera/tazobactam, with the reference strain ATCC 19606) and the yeast strain Candida albicans (ATCC 64549). Mupirocin (GlaxoSmithKline) and fusidic acid (LEO Pharma) were used as comparative control antibiotics.

[1] = tested on: P. aeruginosa (ATCC 15442); assay: Minimal microbicidal concentration (MMC99) assay; assay type: cell-based, Pseudomonas aeruginosa
Procedure: as §1, §2

[2] = tested on: TNF-α secretion from THP-1 cells; assay: Inhibition of TNF-α secretion from LPS-stimulated THP-1 derived macrophages (ELISA); assay type: cell-based, human; settings: PMA-differentiated THP-1 cells, LPS 0.1 ng/mL, peptide added 30 min after LPS, 6 h, triplicate, IC50 ± SEM, 4-parameter fit (Origin)
Procedure: The human monocytic cell line THP-1 (ATCC TIB-202) was cultured in RPMI 1640 medium (PAA Laboratories GmbH) supplemented with 10% FBS (PAA Laboratories GmbH), 1 mM sodium pyruvate (Sigma-Aldrich, St. Louis, MO), and 20 mM 4-(2-hydroxyethyl)-1-piperazineethanesulfonic acid (HEPES; PAA Laboratories GmbH). The cell density was adjusted to 10^6 cells/mL and 100 μL of the cell suspension was added to each well of 96 well plates (Sarstedt, Nümbrecht, Germany). The cells were treated with 10 ng/mL phorbol 12-myristate 13-acetate (PMA; Sigma-Aldrich) to differentiate the monocytes into macrophage-like cells. After 48 h, the cells were stimulated by adding 0.1 ng/mL LPS into the medium specified above, except that 10% FBS was replaced with 5% h.i. FBS. The LPS concentration used was selected based on in vitro titration experiments to give a close to maximum release of cytokines into the cell culture medium over a period of six hours (data not shown). The indicated concentrations of the peptides were added 30 min after addition of LPS. After six hours of incubation, the plates were centrifuged for six minutes at 400 × g and the supernatants were collected and kept frozen at −20°C until analysed for TNF-α and IL-6 production. The cytokine levels were analysed using enzyme-linked immunosorbent assay (ELISA; R&D Systems, Minneapolis, MN).

[3] = synthesis and antimicrobial testing of the different monomers; ref Li et al. [2010]; cited from earlier work
From the text: Invertebrates are proving to be a rich source of AMPs, possibly because of their more pronounced reliance on innate immune functions in their defence against microbial pathogens compared to vertebrates. Many of the peptides isolated from marine species are structurally unique, display significant biological activities and are therefore expected to be useful drug leads (Sperstad et al. [2011]). In a previous study, we detected broad-spectrum antibacterial activity in coelomocyte (blood cell) extracts of the green sea urchin, S. droebachiensis (Haug et al. [2002]). Subsequently, an AMP named cen ...

MRSA (ATCC 33591) = assay type: in vivo; settings: rat excision wound model (MRSA or P. aeruginosa infected), topical application, experimental period
From the text: The ability of CEN1 HC and CEN1 HC (Ser) to reduce bacterial counts was estimated in an excision wound model in rat designed based on previously published studies (Gisby and Bryant [2000]; McRipley and Whitney [1976]; Rittenhouse et al. [2006]; Saymen et al. [1972]). Briefly, female Sprague–Dawley rats (200–250 g, Charles River Laboratories, Sulzfeldt, Germany) were housed at the Laboratory of Experimental Biomedicine, Gothenburg, Sweden. They were kept in a 12-h light–dark cycle and were cared for in accordance with regulations for the protection of laboratory animals. All animal experiments were performed after prior approval from the local Ethics Committee for Animal Studies at the Administrative Court of Appeals in Gothenburg, Sweden. The rats were acclimatised in cages for a minimum of five days before surgery, with four rats in each cage. They had free access to water and pellets (Lab For, Lantmännen, Sweden). The rats were anaesthetised during the whole experiment and the anaesthesia was induced by an intra-peritoneal injection of a mixture of fentanyl (272 μg/kg; B. Braun Melsungen AG, Melsungen, Germany) and medetomidine hydrochloride (545 μg/kg; Domitor, Orion Pharma Animal Health AB, Sollentuna, Sweden). The backs of the rats were shaved and swabbed with 70% chlorhexidine alcohol (Fresenius Kabi AB, Uppsala, Sweden). […] Plates containing 30–300 CFU were counted. […]

[4] = Table 2 screen, medium 0.037% BHI + 85 mM NaCl, 2 h at 37°C, up to 200 mg/L, duplicates, maximum of at least two independent experiments
[5] = Table 2 screen, medium 0.037% BHI + 150 mM NaCl, 2 h at 37°C, up to 200 mg/L, duplicates, maximum of at least two independent experiments
[6] = Table 2 screen, medium 50% heat inactivated simulated wound fluid, 2 h at 37°C, up to 200 mg/L, duplicates, maximum of at least two independent experiments

Substance | S. aureus MMC99, 0.037% BHI + 85 mM NaCl (S. aureus (ATCC 12600); [4]) [mg/L] | S. aureus MMC99, 0.037% BHI + 150 mM NaCl (S. aureus (ATCC 12600); [5]) [mg/L] | S. aureus MMC99, 0.037% BHI (S. aureus (ATCC 12600); Table 2 screen, medium 0.037% BHI, ≥99% reduction of bacteria, 2 h at 37°C, tested up to 200 mg/L, duplicates, maximum value from at least two independent experiments) [mg/L] | S. aureus MMC99, 50% SWF (S. aureus (ATCC 12600); [6]) | S. aureus MMC99, 0.037% BHI with 85 mM or 150 mM NaCl (S. aureus (ATCC 12600); text summary over both NaCl concentrations of Table 2a) [mg/L] | P. aeruginosa MMC99, 0.037% BHI + 85 mM NaCl [1, 4] [mg/L] | P. aeruginosa MMC99, 0.037% BHI + 150 mM NaCl [1, 5] [mg/L] | P. aeruginosa MMC99, 0.037% BHI ([1]; Table 2 screen, medium 0.037% BHI, 2 h at 37°C, up to 200 mg/L, duplicates, maximum of at least two independent experiments) [mg/L] | P. aeruginosa MMC99, 50% SWF [1, 6] | P. aeruginosa MMC99, 0.037% BHI with 85 mM or 150 mM NaCl ([1]; text summary over both NaCl concentrations of Table 2b, compared to 0.037% BHI only) | IC50, TNF-α secretion [2] [µg/mL] | Antimicrobial activity of the synthesised monomers of centrocin 1 [3] | Animal death or local reactions in connection to the application of the test article (MRSA (ATCC 33591))
GW(Br)FKKTFHKVSHAVKSGIHAGQRGCSALGF [CEN1 HC-Br, heavy chain of centrocin 1, 30 residues, brominated tryptophan in position 2] | 25 | 50 | 25 | 25.0 to 50.0 mg/L and 50 mg/L | 25.0 to 50.0 | 12.5 | 25 | 25 | 100.0 mg/L and 100 mg/L | no reduction in effect | ~4.0 | equally active as the original dimeric peptide | 
GWFKKTFHKVSHAVKSGIHAGQRGCSALGF [CEN1 HC] |  |  |  |  |  |  |  |  |  |  |  |  | No animal death or local reactions
